Here are results for eleven molecules from ChEMBL document CHEMBL1201862, “PubChem BioAssay data set” (2004).

Among the test systems are SF-295; HT-29; SK-MEL-5; SK-OV-3; NCI/ADR-RES; UACC-257; NCI-H522; HCT-116; SW-620; SNB-19; A549; MOLT-4; HOP-62; MCF7; OVCAR-4; CCRF-CEM; OVCAR-5; M14; RXF 393.
What all share (experiment): NCI anticancer screen, dose series, 48 h

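Results reflect a 48-hour exposure of cells in 96-well plates to compound at five concentrations. GI50 = concentration required for 50% inhibition of growth.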 Active and inactive are the calls of the source. No stated cut-off is given here; in the data, active = GI50 up to about 1.1 µM and inactive = higher. Where only a bound is given, the exact number is not on record here.

Turning to `O=C1c2ccccc2C(=O)N1CCc1nc(-c2ccccc2)c[nH]1`, the GI50 in the test with SF-295, with HT-29, in the test with SK-MEL-5, in the test on SK-OV-3, in the test on NCI/ADR-RES and with UACC-257 was > 100 µM (inactive) throughout. For the same molecule, the GI50 with NCI-H522, in the test on HCT-116, with SW-620, with SNB-19, in the test on A549 and in the test with MOLT-4 was > 100 µM (inactive) each time. Further, the GI50 in the test with HOP-62, in the test with MCF7, in the test with OVCAR-4, in the test with CCRF-CEM, with OVCAR-5 and with M14 was > 100 µM (inactive) in each case.

As to `Nc1nc(CCC(=O)Nc2cccc(C(F)(F)F)c2)cc(-c2cccc3ccccc23)n1`, the GI50 in the test with SF-295, with HT-29, with SK-MEL-5, in the test with SK-OV-3, in the test on UACC-257 and in the test on NCI-H522 was > 100 µM (inactive) each time. Also, the GI50 in the test with HCT-116, in the test with SW-620, in the test on SNB-19, in the test on RXF 393, with A549 and in the test on MOLT-4 was > 100 µM (inactive) in each case. The GI50 with HOP-62, in the test with OVCAR-4, in the test on CCRF-CEM, with OVCAR-5 and in the test with M14 was > 100 µM (inactive) throughout.

As for `CNC(=O)N1N[C@H](c2ccccc2)[C@@H]1c1ccccc1.OB(O)O`, the GI50 is 17.3 µM (inactive) in the test with SF-295; 16.4 µM (inactive) in the test with HT-29; 16.3 µM (inactive) with SK-MEL-5; 34 µM (inactive) in the test with SK-OV-3; 15.4 µM (inactive) in the test with NCI/ADR-RES; 35.9 µM (inactive) with UACC-257. The GI50 in the test on HCT-116 was 17.9 µM (inactive); in the test on SW-620 it was 28.4 µM (inactive); with SNB-19, 46.1 µM (inactive); with RXF 393, 14.2 µM (inactive); in the test on A549 it was 28.4 µM (inactive); in the test on MOLT-4, 18.7 µM (inactive). Besides, the GI50 was 28.6 µM (inactive) with HOP-62; 24 µM (inactive) in the test on MCF7; 42 µM (inactive) in the test with OVCAR-4; 32.4 µM (inactive) in the test on CCRF-CEM; 29.9 µM (inactive) in the test with OVCAR-5; 21.9 µM (inactive) with M14.

As to `O=[N+]([O-])c1ccc2c(c1)Sc1ccccc1N2`, the GI50 with SF-295 was > 100 µM (inactive); with HT-29 it was > 100 µM (inactive); with SK-MEL-5 it was 9.33 µM (inactive); in the test with NCI/ADR-RES, 14.4 µM (inactive); with UACC-257, > 100 µM (inactive); with NCI-H522, 6.73 µM (inactive). The GI50 in the test on HCT-116 was 9.57 µM (inactive); with SW-620, 43.9 µM (inactive); with SNB-19 it was 78.2 µM (inactive); in the test with RXF 393 it was 37.8 µM (inactive); in the test on A549 it was 8.51 µM (inactive); in the test with MOLT-4, 6.34 µM (inactive). The GI50 in the test on HOP-62 was 34.1 µM (inactive); with MCF7 it was 44.6 µM (inactive); with OVCAR-4, > 100 µM (inactive); in the test on CCRF-CEM, 20.7 µM (inactive); in the test on OVCAR-5 it was > 100 µM (inactive).

Turning to `O=C(/C=C\c1ccc(Cl)c(Cl)c1)c1ccc(Cl)cc1Cl`, the GI50 in the test with SF-295 was 18.6 µM (inactive); in the test with HT-29, 16.8 µM (inactive); in the test with SK-MEL-5 it was 14.9 µM (inactive); in the test with SK-OV-3 it was 19.9 µM (inactive); with UACC-257 it was 19.9 µM (inactive); with NCI-H522, 15.9 µM (inactive). In addition, the GI50 was 9.14 µM (inactive) in the test with HCT-116; 2.69 µM (inactive) in the test on SW-620; 12.4 µM (inactive) in the test on SNB-19; 16.1 µM (inactive) in the test on RXF 393; 22.6 µM (inactive) in the test on A549; 2.99 µM (inactive) with MOLT-4. Also, the GI50 in the test with HOP-62 was > 10 µM (inactive); in the test on OVCAR-4, 24.4 µM (inactive); with CCRF-CEM, 4.1 µM (inactive); with OVCAR-5, > 10 µM (inactive); in the test on M14 it was 21.9 µM (inactive).

As to `CC(C)(C)N1CC2(CCCCC2)C1=O`, the GI50 with SF-295, in the test on HT-29, in the test with SK-MEL-5, with SK-OV-3, with UACC-257 and with NCI-H522 was > 100 µM (inactive) each time. Besides, the GI50 in the test with HCT-116, with SW-620, in the test with SNB-19, in the test with RXF 393, in the test on A549 and in the test on MOLT-4 was > 100 µM (inactive) in each case. The GI50 with HOP-62, in the test on OVCAR-4, with CCRF-CEM, in the test on OVCAR-5 and with M14 was > 100 µM (inactive) each time.

Consider `COc1cc(/C=C2/Oc3c(OC)cccc3C2=O)ccc1O`, for which the GI50 in the test on SF-295 was 54 µM (inactive); in the test with HT-29, 52.4 µM (inactive); with SK-MEL-5 it was 34.8 µM (inactive); in the test with SK-OV-3, 92 µM (inactive); in the test with NCI/ADR-RES, > 10 µM (inactive); in the test on UACC-257 it was > 100 µM (inactive). For the same molecule, the GI50 in the test on NCI-H522 is 24.7 µM (inactive); with HCT-116, 76.9 µM (inactive); with SW-620, > 100 µM (inactive); with SNB-19, 91 µM (inactive); in the test with RXF 393 it was 90.2 µM (inactive); in the test on A549 it was > 100 µM (inactive). Also, the GI50 was 50.4 µM (inactive) in the test on MOLT-4; 83.8 µM (inactive) in the test on HOP-62; > 100 µM (inactive) in the test on MCF7; > 100 µM (inactive) in the test on OVCAR-4; 60.1 µM (inactive) with CCRF-CEM; > 100 µM (inactive) with OVCAR-5. In addition, in the test with M14, the GI50 was 30.8 µM (inactive).

On to `CCc1nc(Cl)c(Cl)c(Cl)n1`, for which the GI50 in the test on SF-295, in the test with HT-29, with SK-MEL-5, in the test on SK-OV-3, with NCI/ADR-RES and in the test with UACC-257 was > 100 µM (inactive) each time. The GI50 in the test with SW-620, in the test with SNB-19, with RXF 393, with A549, in the test on MOLT-4 and in the test with HOP-62 was > 100 µM (inactive) throughout. Also, the GI50 with MCF7, with OVCAR-4, in the test with CCRF-CEM, in the test with OVCAR-5 and in the test with M14 was > 100 µM (inactive) in each case.

For `CC(=O)O[C@H]1CC[C@@]2(C)C(CC[C@]3(C)C2CC[C@]2(C)Oc4c(C)cc(O)cc4C[C@@H]23)C1(C)C` (stereo partly specified), the GI50 with SF-295 was 2.17 µM (inactive); with HT-29, 11.2 µM (inactive); in the test with SK-MEL-5, 5.87 µM (inactive); with SK-OV-3, 7.08 µM (inactive); in the test with UACC-257, 8.47 µM (inactive); in the test on NCI-H522, 5.46 µM (inactive). In addition, the GI50 with HCT-116 is 5.27 µM (inactive); in the test with SW-620, 1.88 µM (inactive); with SNB-19, 4.24 µM (inactive); in the test with RXF 393 it was 2.88 µM (inactive); with A549, 5.22 µM (inactive); in the test on MOLT-4 it was 2.84 µM (inactive). The GI50 in the test on HOP-62 was 10.8 µM (inactive); in the test with OVCAR-4, 7.64 µM (inactive); in the test with CCRF-CEM it was 3.79 µM (inactive); in the test on OVCAR-5, 10.9 µM (inactive); in the test with M14 it was 11.9 µM (inactive).

Consider `CN(C)CCC(=O)N1CCc2c([nH]c3ccccc23)C1c1cccnc1` (stereo unspecified), for which the GI50 with SF-295 is > 100 µM (inactive); in the test on HT-29, > 100 µM (inactive); with SK-MEL-5 it was > 100 µM (inactive); in the test with SK-OV-3, > 100 µM (inactive); with UACC-257, 28.5 µM (inactive); in the test on NCI-H522 it was > 100 µM (inactive). Also, the GI50 in the test on HCT-116 was > 100 µM (inactive); with SW-620, > 100 µM (inactive); with SNB-19 it was > 100 µM (inactive); with RXF 393 it was 0.192 µM (active); in the test with A549, > 100 µM (inactive); in the test on MOLT-4, > 100 µM (inactive). Further, the GI50 with HOP-62, in the test on OVCAR-4, with CCRF-CEM, in the test on OVCAR-5 and with M14 was > 100 µM (inactive) each time.

As to `C=C1C(=O)O[C@H](c2ccoc2)C[C@@H]1[C@@]1(C)CCCC2(C)C(=O)OCC21` (stereo partly specified), the GI50 with SF-295, with HT-29, in the test on SK-MEL-5, in the test with SK-OV-3, in the test on UACC-257 and in the test on NCI-H522 was > 100 µM (inactive) each time. Also, the GI50 in the test on HCT-116, in the test on SW-620, in the test on SNB-19, in the test on RXF 393, with A549 and with MOLT-4 was > 100 µM (inactive) throughout. The GI50 with HOP-62, with OVCAR-4, in the test on CCRF-CEM, in the test with OVCAR-5 and with M14 was > 100 µM (inactive) each time.
